{
  "source": "patent US20110118347A1",
  "about": "“TREATMENT Of RINGWORM” (Vernolix Limited, priority 2008, published 2011)",
  "key": {"[1]": {"experiment": "Penetration of compounds of Formula I into mammalian skin (living pig skin)", "assay_type": "in vitro ADME", "settings": "5% by wt in lanolin-based cream, applied to outer surface of living pig skin, after one hour", "excerpt": "The formulation may be applied to the outer surface of a section of living pig skin."}, "T. tonsurans": {"system": "T. tonsurans", "experiment": "Screen for activity against fungal lawns of T. tonsurans", "assay_type": "cell-based, Trichophyton tonsurans"}},
  "data": [
    {"compound": "CCCCCC(O)C(O)CC=CCCCCCCCC(=O)O", "note": "(centres unmarked) [Compound (iv), 12,13-dihydroxyoctadec-9-enoic acid]", "values": [
      {"measurement": "penetration of the active compounds into the dermis and epidermis", "setting": "[1]", "result": "a significant amount of compounds (i) and (iv) has penetrated the dermis"},
      {"measurement": "fungicidal activity against fungal lawns of T. tonsurans", "setting": "T. tonsurans", "result": "effective fungicidal activity"}
    ]}
  ]
}
